Like-named read-outs stand apart in the source and are kept apart here.
How the values were obtained:
[1] = test system: writhing induced by phenylquinone administration in Swiss rats; assay: Phenylquinone writhing test, analgesic activity; type: in vivo; settings: for No. WRITHINGS M̄ ± ES: control 24.5 ±2.2
Protocol: The analgesic activity of the compounds of the invention was determined according to the writhing test, as inhibitory activity against the writhing induced by phenylquinone administration in Swiss rats (Siegmund et al., Proc. Soc. Exp. Biol. Med. 95, 729, 1957). The analgesic activity of MR 883 was determined in comparison to the one of Diflunisal and Naproxen.

[2] = test system: writhing induced by acetic acid in the rat; assay: Inhibition of writhing induced by acetic acid, analgesic ED50; type: in vivo; settings: po
Protocol: The ED50 in the analgesic activity of MR 883, in comparison to Diflunisal, D-prppoxyphene, phenylbutazone and acetylsalicylic acid was determined according to the test of inhibition of writhing induced by acetic acid in the rat (Sofia et al., J. Pharmacol. Expt. Therap. 186, 646, 1973).

[3] = test system: carrageenin oedema in the rat paw; assay: Carrageenin oedema test (rat paw), antiinflammatory activity; type: in vivo; settings: for Inhibition versus control / AREAS % M ± ES: 50 mg/kg p.o., 10 rats per group; for Inhibition versus control: oedema areas; for AREAS % M ± ES: control 305 ±23.7; for ED50: Rattus norvegicus, carrageenin oedema, oral, groups of 10 rats, dosages of 25.50 and 100 mg/kg
Protocol: The antiinflammatory activity of the compounds of the invention was determined according to the carrageenin oedema test in rats, in comparison with equiponderal dosages of Diflunisal (Rissly, Ness.; Proc. Soc. Exp. Biol. Med., 111, 544-547, 1962).
ED50 of MR 883 and Diflunisal were determined according to the same test. Groups of 10 rats were administered orally with the compounds at dosages of 25.50 and 100 mg/kg.

rat = settings: cited from earlier work
[4] = Acute toxicology: indicative LD50 in the rat; settings: in vivo, ip
[5] = Qualitative solubility of the isolated product; type: physicochemical; settings: for solubility in bicarbonate solutions: bicarbonate solution
[6] = acetic acid writhing in the rat, per os, read-out: ED50
[7] = dose 50 mg/kg, 10 animals per group

## COc1ccc2cc([C@H](C)C(=O)O)ccc2c1 [Naproxen, reference compound]
[1]; dose 100 mg/kg
  % Inhibition versus control: 84%
[1]; dose 100 mg/kg, 10 animals
  No. WRITHINGS M̄ ± ES: 4.0 ±1.1

## CCC(=O)O[C@](Cc1ccccc1)(c1ccccc1)[C@H](C)CN(C)C [D-propoxyphene]
[2]; Rattus norvegicus
  ED50: 40 mg/kg

## CCCCC1C(=O)N(c2ccccc2)N(c2ccccc2)C1=O [Phenylbutazone]
[2]; [6]
  ED50: 180 mg/kg

## O=C(O)c1cc(-c2ccc(F)cc2F)ccc1O [Diflunisal, reference compound]
[3]
  Inhibition versus control: 59.6%
  AREAS % M ± ES: 123.3 ±10.1
  ED50: 234 mg/kg
[1]; dose 50 mg/kg
  % Inhibition versus control: 82%
[1]; [7]
  No. WRITHINGS M̄ ± ES: 4.3 ±1.6
[2]; [6]
  ED50: 45 mg/kg
rat
  LD50 p.o.: about 750 mg/kg

## COC(C(=O)O)c1ccc(-c2ccc(F)cc2F)cc1 (centres unmarked) [MR 883, 2-Methoxy-2-[p-(2^1,4"-difluorophenyl)phenyl]acetic acid]
[4]
  LD50: 2200 mg/kg
[3]
  Inhibition versus control: 52.8%
  AREAS % M ± ES: 144.0 ±17.5
  ED50: 145 mg/kg
[1]; dose 50 mg/kg
  % Inhibition versus control: 98%
[2]; [6]
  ED50: 25 mg/kg
[5]
  solubility in the usual organic solvents: soluble

## O=C(O)C(O)c1ccc(-c2ccc(F)cc2F)cc1 (centres unmarked) [MR 864, 2-Hydroxy-2-[p-(2",4"-difluorophenyl)phenyl]acetic acid]
[4]
  LD50: 850 mg/kg
[3]
  Inhibition versus control: 42.7%
  AREAS % M ± ES: 174.7 ±20.7
[1]; dose 50 mg/kg
  % Inhibition versus control: 85%
[1]; [7]
  No. WRITHINGS M̄ ± ES: 3.6 ±1.2
[5]; cyclohexane, petroleum ether
  solubility in cyclohexane and petroleum ether: soluble
[5]; toluene, chloroform, carbon tetrachloride
  solubility in toluene, chloroform, carbon tetrachloride: slightly soluble
[5]
  solubility in water: soluble

## O=C(O)C(Cl)c1ccc(-c2ccc(F)cc2F)cc1 (centres unmarked) [MR 881, 2-Chloro-2-[p-(2",4"-difluorophenyl)phenyl]acetic acid]
[4]
  LD50: 850 mg/kg
[3]
  Inhibition versus control: 48.6%
  AREAS % M ± ES: 156.8 ±13.1
[1]; dose 50 mg/kg
  % Inhibition versus control: 95%
[5]
  solubility in bicarbonate solutions: soluble
  solubility in the usual organic solvents: soluble
  solubility in water: insoluble

## CC(=O)Oc1ccccc1C(=O)O [Acetylsalicylic acid]
[2]; Rattus norvegicus
  ED50: 330 mg/kg

## CCOC(C(=O)O)c1ccc(-c2ccc(F)cc2F)cc1 (centres unmarked) [MR 936, 2-Ethoxy-2-[p-(2",4"-difluorophenyl)phenyl]acetic acid]
[4]
  LD50: 1800 mg/kg
[3]
  Inhibition versus control: 45.8%
  AREAS % M ± ES: 139.7 ±15.2
[1]; dose 50 mg/kg
  % Inhibition versus control: 76.7%
[1]; [7]
  No. WRITHINGS M̄ ± ES: 5.7 ±0.8
[5]
  solubility in bicarbonate solutions: soluble
  solubility in the usual organic solvents: soluble

From patent publication EP0126287B1, “Fluorinated compounds having analgesic and antiinflammatory activities” (MEDEA RESEARCH S.r.l., priority 1983, dated 1984)
